This series can be described thus: solvent given as SMILES.
The mark [1] stands for this setting: in c1cc(-n2c3ccccc3c3ccccc32)cc(-n2c3ccccc3c3ccccc32)c1.

Under “in CS(C)=O”, `CCCCN1/C(=C/C=C/C2=[N+](C)c3ccccc3C2(C)C)C(C)(C)c2cc(OC)ccc21` yielded an emission maximum of 585 nm.
Regarding `CC1(C)C(/C=C/C2=C(c3ccc(C(=O)O)cc3)C(=C/C=C3/N(CCCCS(=O)(=O)[O-])c4ccc5ccccc5c4C3(C)C)/CCC2)=[N+](CCCCS(=O)(=O)[O-])c2ccc3ccccc3c21`, for the setting “in CO”, the emission maximum stood at 811 nm.
For `c1ccc2c(c1)ccc1c3ccccc3ccc21`, where the note is “in ClCCl”, the emission maximum is on record as 366 nm.
With `F[B-]1(F)Oc2ccccc2-c2nc(-c3ccccc3)c3ccccc3[n+]21`, the emission maximum (in Cc1ccccc1) was found to be 529 nm.
`C(S/C=C/c1ccc(/C=C/SC=C2CCCC2)cc1)=C1CCCC1`: the emission maximum (in ClCCl) came to 424 nm.
As for `CC(C)(C)c1ccc2c(c1)c1cc(C(C)(C)C)ccc1n2-c1ccccc1-c1nccnc1C#N`, the emission maximum runs as follows: (in Cc1ccccc1) 490 nm; under setting [1], 483 nm.
Consider `O=C(O)CCCOc1cccc(-c2c3nc(cc4ccc([nH]4)c(-c4cccc(OCCCC(=O)O)c4)c4nc(cc5ccc2[nH]5)C=C4)C=C3)c1`, for which, under “in CS(C)=O”, the emission maximum is 632 nm.
Take `O=c1oc2ccccc2cc1-c1cc2ccccc2o1`: the emission maximum worked out at 442 nm (in CC#N); 433 nm (in CCOC(C)=O); 450 nm (in CS(C)=O); 431 nm (in Cc1ccccc1); 475 nm (in O).
Turning to `CCCCCCCCn1c(=O)c2cc3c(C#Cc4ccc(N(c5ccccc5)c5ccccc5)cc4)c4cc5c(=O)n(CCCCCCCC)c(=O)c5cc4c(C#Cc4ccc(N(c5ccccc5)c5ccccc5)cc4)c3cc2c1=O`, the emission maximum (in ClC(Cl)Cl) turned out to be 641 nm.
As for `CN(C)c1ccc(-c2ccc(-c3cc(N4CCCCC4)c(C#N)c4c3-c3ccccc3CC4)s2)cc1`, the emission maximum runs as follows: (in C1CCCCC1) 491 nm; (in C1CCOC1) 537 nm; (in CN(C)C=O) 590 nm; (in CS(C)=O) 570 nm; (in Cc1ccccc1) 515 nm; (in ClC(Cl)Cl) 540 nm.
Regarding `c1ccc(-c2c3ccccc3nc3cc4ccccc4cc23)cc1`, where the note is “in ClCCl”, the emission maximum was 525 nm.
For `Cc1ccc(/C2=c3\cc/c(o3)=C(\c3ccc(C)cc3)c3ccc([nH]3)-c3ccc4n3[B-](F)(F)[N+]3=C(C=CC3=C4c3ccco3)c3ccc2[nH]3)cc1`, the emission maximum (in ClC(Cl)Cl) was determined as 731 nm.
As to `N#C/C(=C\c1ccc(Cl)cc1)c1nc(-c2ccccc2)cs1`, under “in CC#N”, the emission maximum came out at 480 nm.
As for `c1ccc(N(c2ccccc2)c2ccc(-c3ccc4c(c3)C3(c5ccccc5Oc5ccccc53)c3cc(-c5ccc(N(c6ccccc6)c6ccccc6)cc5)ccc3-4)cc2)cc1`, the emission maximum by setting is: (in ClCCl) 457 nm; under setting [1], 441 nm.
Turning to `CC(C)(C)c1ccc(C#Cc2c(C#Cc3ccc(C(C)(C)C)cc3)c3cccc4c(C#Cc5ccc(C(C)(C)C)cc5)c(C#Cc5ccc(C(C)(C)C)cc5)c5cccc2c5c34)cc1`, the emission maximum (in ClCCl) was 443 nm.
Take `CC(C)[Si](C#Cc1ccc(C#C[Si](C(C)C)(C(C)C)C(C)C)c2nc3c(ccc4cc5ccccc5cc43)nc12)(C(C)C)C(C)C`: the emission maximum (in CCCCCC) was 466 nm.
`CCC(C)(C)c1ccc(-c2ccc3c(c2)C(CCOC)(CCOC)c2cc(C(C)(C)CC)ccc2-3)cc1` had an emission maximum (in C1CCCCC1) of 360 nm.
Where the note is “in C1CCCCC1”, `Cc1cc2ccccc2cc1C` registered an emission maximum of 339.21 nm.
With `CCCCCCOc1ccc(/C=C/c2ccc(N(c3ccc(/C=C/c4ccc(OCCCCCC)cc4)cc3)c3ccc(-c4nc5ccccc5nc4-c4ccc(N(c5ccc(/C=C/c6ccc(OCCCCCC)cc6)cc5)c5ccc(/C=C/c6ccc(OCCCCCC)cc6)cc5)cc4)cc3)cc2)cc1`, the emission maximum is, setting by setting: (in C1CCOC1) 518 nm; (in Cc1ccccc1) 505 nm.
The compound `CCc1nc2c(nc1CC)C(c1ccccc1)=[N+]1C2=Nc2c3nc(CC)c(CC)nc3c(-c3ccccc3)n2[B-]1(F)F` had an emission maximum (in C1CCOC1) of 721 nm.
Consider `CCCCCCn1c2cc(/C=C/c3cccs3)ccc2c2ccc(/C=C/c3cccs3)cc21`, for which the emission maximum (in ClC(Cl)Cl) is on record as 427.35 nm.
Turning to `N#Cc1nn(-c2ccc(F)cc2)nc1N1CCCC1`, the emission maximum (in CC#N) was determined as 422 nm.

(Values after the Deep4Chem optical property database.)
